# Measured values reported in US11447503B2, “Pyridine carbamates and their use as GLUN2B receptor modulators” (JANSSEN PHARMACEUTICA NV, priority 2019, dated 2022).
# Structures can show the parent of a compound that is named as a salt.
# Target: human GluN1/GluN2B NMDA receptors (Homo sapiens, UniProt Q05586+Q13224)
# Experiment: Cell-based calcium flux (FLIPR) assay on cloned human GluN1/GluN2B ion channels expressed in mammalian cells
# Details: standard assay; glutamate ~EC40, 10 μM glycine; stable Tet-On cell line
# Procedure: 5.3. Biological Assays: Effect of Compounds of Formula (I) on Cloned Human GluN1/GluN2B Ion Channels Expressed in Mammalian Cells
# NMDA receptors are ion channels that are highly permeable to Ca^2+ ions, rendering it possible to monitor NMDA receptor function using cell-based calcium flux assay. In this assay, co-agonists glutamate and glycine are added to cells heterologously expressing human GluN1/GluN2B NMDA receptors to initiate cellular Ca^2+ influx. The time course of the changes in intracellular calcium is measured using a fluorescent dye and a FLIPR (Fluorometric Imaging Plate Reader) device.
# Twenty four hours before measurements, the expression of the NMDA receptors in the stable cell line is induced with Tet-On inducible system in the presence of a non-selective NMDA receptor blocker. On the day of the experiment, cell culture media is carefully washed and the cells are loaded with Calcium 5 Dye Kit (Molecular Devices) in dye loading buffer containing 137 mM NaCl, 4 mM KCl, 2 mM CaCl2, 0.5 mM MgCl2 (standard assay) or 1.5 mM MgCl2 (HTS assay), 10 mM HEPES and 5 mM D-glucose; pH 7.4. After 1 h incubation at the room temperature, the dye is washed away with the assay buffer (137 mM NaCl (standard assay) or 150 mM (HTS assay), 4 mM KCl (standard assay) or 3 mM (HTS assay), 2 mM CaCl2, 0.01 mM EDTA, 10 mM HEPES and 5 mM D-glucose; pH 7.4) In the FLIPR TETRA reader, various concentrations of the test compounds are added to the cells for 5 min while fluorescence is monitored to detect potential agonist activity. Next, co-agonists, glutamate and glycine are added for another 5 minutes. The concentration of glutamate corresponding to ˜EC40 (standard assay) or EC40 (HTS assay) is used to maximize the assay's signal window and ability to detect NMDA receptor antagonists and negative allosteric modulators. A saturating concentration (10 μM) of glycine is also present in the assay. A non-selective NMDA receptor antagonist, (+)MK-801 is used as a positive control for antagonist activity. The fluorescent signal in the presence of test compounds is quantified and normalized to the signal defined by the appropriate control wells.
# human GluN1/GluN2B NMDA receptors, sequence (Q13224 27-1484, other chains not shown): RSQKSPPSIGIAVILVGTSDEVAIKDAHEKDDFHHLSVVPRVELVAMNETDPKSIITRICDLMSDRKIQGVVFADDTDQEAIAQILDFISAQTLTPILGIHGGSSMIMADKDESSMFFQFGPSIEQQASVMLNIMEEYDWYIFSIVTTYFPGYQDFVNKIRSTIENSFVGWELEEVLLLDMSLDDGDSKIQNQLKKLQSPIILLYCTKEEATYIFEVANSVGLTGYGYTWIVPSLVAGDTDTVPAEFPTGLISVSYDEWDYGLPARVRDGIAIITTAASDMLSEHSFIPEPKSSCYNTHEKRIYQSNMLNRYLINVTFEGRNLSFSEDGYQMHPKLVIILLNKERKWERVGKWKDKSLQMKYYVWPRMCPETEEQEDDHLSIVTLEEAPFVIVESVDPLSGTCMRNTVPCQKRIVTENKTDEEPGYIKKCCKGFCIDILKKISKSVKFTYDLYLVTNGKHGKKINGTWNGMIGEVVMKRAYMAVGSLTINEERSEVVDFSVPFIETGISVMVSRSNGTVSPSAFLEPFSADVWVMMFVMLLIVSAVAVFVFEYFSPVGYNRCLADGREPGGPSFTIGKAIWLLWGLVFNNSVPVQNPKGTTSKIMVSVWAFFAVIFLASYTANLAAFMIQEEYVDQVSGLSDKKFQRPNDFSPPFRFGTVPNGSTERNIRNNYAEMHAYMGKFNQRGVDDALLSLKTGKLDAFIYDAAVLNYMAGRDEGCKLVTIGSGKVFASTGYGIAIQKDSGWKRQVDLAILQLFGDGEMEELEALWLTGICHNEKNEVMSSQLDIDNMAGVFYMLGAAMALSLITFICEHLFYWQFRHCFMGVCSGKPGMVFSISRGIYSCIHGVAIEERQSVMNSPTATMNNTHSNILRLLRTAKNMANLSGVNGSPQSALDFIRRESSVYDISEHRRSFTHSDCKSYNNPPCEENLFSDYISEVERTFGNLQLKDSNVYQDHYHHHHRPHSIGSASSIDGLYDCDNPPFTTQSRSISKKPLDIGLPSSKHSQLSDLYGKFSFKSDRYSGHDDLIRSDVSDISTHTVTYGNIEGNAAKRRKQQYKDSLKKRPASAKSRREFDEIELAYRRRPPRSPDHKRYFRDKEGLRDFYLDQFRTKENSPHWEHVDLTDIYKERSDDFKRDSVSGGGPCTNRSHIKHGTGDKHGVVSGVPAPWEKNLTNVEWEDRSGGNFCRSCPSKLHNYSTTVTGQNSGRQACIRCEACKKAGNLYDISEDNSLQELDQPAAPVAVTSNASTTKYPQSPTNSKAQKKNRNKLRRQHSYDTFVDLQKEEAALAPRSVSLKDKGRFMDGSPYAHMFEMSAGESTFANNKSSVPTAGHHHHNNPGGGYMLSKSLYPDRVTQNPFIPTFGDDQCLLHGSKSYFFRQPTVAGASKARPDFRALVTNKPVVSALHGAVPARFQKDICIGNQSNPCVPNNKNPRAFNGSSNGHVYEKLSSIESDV
row,Compound,IC50 [nM]
1,"O=C1OCCN1Cc1cncc(-c2ccc(F)c(OC(F)F)c2)c1 [Example 2, 3-[[5-[3-(Difluoromethoxy)-4-fluoro-phenyl]-3-pyridyl]methyl]oxazolidin-2-one]",12
2,"CC(C)[C@H]1COC(=O)N1Cc1cncc(-c2ccc(F)c(OC(F)F)c2)c1 [Example 3, (4S)-3-[[5-[3-(Difluoromethoxy)-4-fluoro-phenyl]-3-pyridyl]methyl]-4-isopropyl-oxazolidin-2-one]",3010
3,"O=C1OCc2ccccc2N1Cc1cncc(-c2ccc(F)c(OC(F)F)c2)c1 [Example 4, 1-[[5-[3-(Difluoromethoxy)-4-fluoro-phenyl]-3-pyridyl]methyl]-4H-3,1-benzoxazin-2-one]",123
4,"O=C1OC2(CC2)CN1Cc1cncc(-c2ccc(F)c(OC(F)F)c2)c1 [Example 9, 5-[[5-[3-(Difluoromethoxy)-4-fluoro-phenyl]-3-pyridyl]methyl]-7-oxa-5-azaspiro[2.4]heptan-6-one]",12
5,"CC1(C)CCN(Cc2cncc(-c3ccc(F)c(OC(F)F)c3)c2)C(=O)O1 [Example 10, 3-[[5-[3-(Difluoromethoxy)-4-fluoro-phenyl]-3-pyridyl]methyl]-6,6-dimethyl-1,3-oxazinan-2-one]",521
6,"CC(C)[C@@H]1COC(=O)N1Cc1cncc(-c2ccc(F)c(OC(F)F)c2)c1 [Example 11, (4R)-3-[[5-[3-(Difluoromethoxy)-4-fluoro-phenyl]-3-pyridyl]methyl]-4-isopropyl-oxazolidin-2-one]",> 3000
7,"O=C1OC2(CCC2)CN1Cc1cncc(-c2ccc(F)c(OC(F)F)c2)c1 [Example 12, 6-[[5-[3-(Difluoromethoxy)-4-fluoro-phenyl]-3-pyridyl]methyl]-8-oxa-6-azaspiro[3.4]octan-7-one]",59
8,"O=C1OC2(COC2)CN1Cc1cncc(-c2ccc(F)c(OC(F)F)c2)c1 [Example 13, 6-[[5-[3-(Difluoromethoxy)-4-fluoro-phenyl]-3-pyridyl]methyl]-2,8-dioxa-6-azaspiro[3.4]octan-7-one]",39
9,"O=C1OC2(CCOCC2)CN1Cc1cncc(-c2ccc(F)c(OC(F)F)c2)c1 [Example 20, 2-[[5-[3-(Difluoromethoxy)-4-fluoro-phenyl]-3-pyridyl]methyl]-4,8-dioxa-2-azaspiro[4.5]decan-3-one]",267
10,"O=C1OC2(CNC2)CN1Cc1cncc(-c2ccc(F)c(C(F)F)c2)c1 [Example 21, 6-[[5-[3-(Difluoromethyl)-4-fluoro-phenyl]-3-pyridyl]methyl]-8-oxa-2,6-diazaspiro[3.4]octan-7-one Trifluoroacetate Salt]",806
11,"CC(C)[C@H]1COC(=O)N1Cc1cncc(-c2ccc(F)c(C(F)F)c2)c1 [Example 23, (4S)-3-[[5-[3-(Difluoromethyl)-4-fluoro-phenyl]-3-pyridyl]methyl]-4-isopropyl-oxazolidin-2-one]",2600
12,"O=C1OCc2ccccc2N1Cc1cncc(-c2ccc(F)c(C(F)F)c2)c1 [Example 24, 1-[[5-[3-(Difluoromethyl)-4-fluoro-phenyl]-3-pyridyl]methyl]-4H-3,1-benzoxazin-2-one]",73
13,"O=C1OC2(CC2)CN1Cc1cncc(-c2ccc(F)c(C(F)F)c2)c1 [Example 29, 5-[[5-[3-(Difluoromethyl)-4-fluoro-phenyl]-3-pyridyl]methyl]-7-oxa-5-azaspiro[2.4]heptan-6-one]",12
14,"CC1(C)CCN(Cc2cncc(-c3ccc(F)c(C(F)F)c3)c2)C(=O)O1 [Example 30, 3-[[5-[3-(Difluoromethyl)-4-fluoro-phenyl]-3-pyridyl]methyl]-6,6-dimethyl-1,3-oxazinan-2-one]",603
15,"CC(C)[C@@H]1COC(=O)N1Cc1cncc(-c2ccc(F)c(C(F)F)c2)c1 [Example 31, (4R)-3-[[5-[3-(Difluoromethyl)-4-fluoro-phenyl]-3-pyridyl]methyl]-4-isopropyl-oxazolidin-2-one]",> 3000
16,"O=C1OC2(CCC2)CN1Cc1cncc(-c2ccc(F)c(C(F)F)c2)c1 [Example 32, 6-[[5-[3-(Difluoromethyl)-4-fluoro-phenyl]-3-pyridyl]methyl]-8-oxa-6-azaspiro[3.4]octan-7-one]",26
17,"C[C@@H]1CN(Cc2cncc(-c3ccc(F)c(C(F)F)c3)c2)C(=O)O1 [Example 33, (5R)-3-[[5-[3-(Difluoromethyl)-4-fluoro-phenyl]-3-pyridyl]methyl]-5-methyl-oxazolidin-2-one]",16
18,"O=C1OC2(COC2)CN1Cc1cncc(-c2ccc(F)c(C(F)F)c2)c1 [Example 34, 6-[[5-[3-(Difluoromethyl)-4-fluoro-phenyl]-3-pyridyl]methyl]-2,8-dioxa-6-azaspiro[3.4]octan-7-one]",30

row,Compound,IC50 [nM]
1,"O=C1OC2(CCOCC2)CN1Cc1cncc(-c2ccc(F)c(C(F)F)c2)c1 [Example 42, 2-[[5-[3-(Difluoromethyl)-4-fluoro-phenyl]-3-pyridyl]methyl]-4,8-dioxa-2-azaspiro[4.5]decan-3-one]",108
2,"O=C1OC2(CNC2)CN1Cc1cncc(-c2ccc(F)c(OC(F)F)c2)c1 [Example 43, 6-[[5-[3-(Difluoromethoxy)-4-fluoro-phenyl]-3-pyridyl]methyl]-8-oxa-2,6-diazaspiro[3.4]octan-7-one Trifluoroacetate Salt]",2620
3,"Cc1cc(-c2cncc(CN3CCOC3=O)c2)ccc1F [Example 44, 3-[[5-(4-Fluoro-3-methyl-phenyl)-3-pyridyl]methyl]oxazolidin-2-one]",12
4,"Cc1c(F)ccc(-c2cncc(CN3CCOC3=O)c2)c1F [Example 45, 3-[[5-(2,4-Difluoro-3-methyl-phenyl)-3-pyridyl]methyl]oxazolidin-2-one]",9
5,"O=C1OCCN1Cc1cncc(-c2cccc(C(F)(F)F)c2)c1 [Example 46, 3-[[5-[3-(Trifluoromethyl)phenyl]-3-pyridyl]methyl]oxazolidin-2-one]",26
6,"O=C1OCCN1Cc1cncc(-c2ccc(Cl)c(OC(F)F)c2)c1 [Example 47, 3-[[5-[4-Chloro-3-(difluoromethoxy)phenyl]-3-pyridyl]methyl]oxazolidin-2-one]",11
7,"O=C1OCCN1Cc1cncc(-c2ccc(OC(F)(F)F)c(F)c2)c1 [Example 48, 3-[[5-[3-Fluoro-4-(trifluoromethoxy)phenyl]-3-pyridyl]methyl]oxazolidin-2-one]",912
8,"CC(F)(F)c1cc(-c2cncc(CN3CCOC3=O)c2)ccc1F [Example 49, 3-[[5-[3-(1,1-Difluoroethyl)-4-fluoro-phenyl]-3-pyridyl]methyl]oxazolidin-2-one]",30
9,"O=C1OCCN1Cc1cncc(-c2cccc(C(F)(F)F)n2)c1 [Example 50, 3-[[5-[6-(Trifluoromethyl)-2-pyridyl]-3-pyridyl]methyl]oxazolidin-2-one]",786
10,"O=C1OCCN1Cc1cncc(-c2ccnc(C(F)(F)F)c2)c1 [Example 51, 3-[[5-[2-(Trifluoromethyl)-4-pyridyl]-3-pyridyl]methyl]oxazoidin-2-one]",1000
11,"O=C1OCCCN1Cc1cncc(-c2ccc(F)c(C(F)(F)F)c2)c1 [Example 52, 3-[[5-[4-Fluoro-3-(trifluoromethyl)phenyl]-3-pyridyl]methyl]-1,3-oxazinan-2-one]",27
12,"[2H]C([2H])(c1cncc(-c2ccc(F)c(OC(F)F)c2)c1)N1CCCOC1=O [Example 55, 3-[Dideuterio-[5-[3-(difluoromethoxy)-4-fluoro-phenyl]-3-pyridyl]methyl]-1,3-oxazinan-2-one]",12
13,"[2H]C([2H])(c1cc(-c2ccc(F)c(OC(F)F)c2)cnc1C)N1CCCOC1=O [Example 56, 3-[Dideuterio-[5-[3-(difluoromethoxy)-4-fluoro-phenyl]-2-methyl-3-pyridyl]methyl]-1,3-oxazinan-2-one]",9
14,"[2H]C([2H])(c1cc(-c2ccc(F)c(C)c2)cnc1C)N1CCCOC1=O [Example 57, 3-[Dideuterio-[5-(4-fluoro-3-methyl-phenyl)-2-methyl-3-pyridyl]methyl]-1,3-oxazinan-2-one]",23
15,"[2H]C([2H])(c1cc(-c2ccc(F)c(C(F)F)c2)cnc1C)N1CCCOC1=O [Example 58, 3-[Dideuterio-[5-[3-(difluoromethyl)-4-fluoro-phenyl]-2-methyl-3-pyridyl]methyl]-1,3-oxazinan-2-one]",25
16,"[2H]C([2H])(c1cc(-c2ccc(F)c(C(F)F)c2)cnc1C)N1CCOC1=O [Example 59, 3-[Dideuterio-[5-[3-(difluoromethyl)-4-fluoro-phenyl]-2-methyl-3-pyridyl]methyl]oxazolidin-2-one]",13
17,"Cc1ncc(-c2cccc(C(F)F)c2)cc1CN1CCCOC1=O [Example 62, 3-[[5-[3-(Difluoromethyl)phenyl]-2-methyl-3-pyridyl]methyl]-1,3-oxazinan-2-one]",128
